# Measurements reported in publication PMC7377239, “Cardiovascular Effects of Polychlorinated Biphenyls and Their Major Metabolites” (Environmental Health Perspectives, 2020).
# Structures can show the parent of a compound that is named as a salt.
# System: iPSC-CMs, iPSC-ECs and HUVECs phenotypes
# Assay: ToxPi 2.0 integration of POD values and physicochemical descriptors
# Set-up: species or system human
# Details: ToxPi-scaled (0-1) score; for huvec.cyto.24hr / huvec.mito.24hr / huvec.mitoint.24hr / huvec.nma.24hr / huvec.tc.24hr / huvec.mtl.18hr / huvec.tlps.18hr / huvec.tta.18hr / huvec.ttl.18hr: HUVECs; for huvec.mtl.18hr / huvec.tlps.18hr / huvec.tta.18hr / huvec.ttl.18hr / endo.mtl.18hr / endo.tlps.18hr / endo.tta.18hr / endo.ttl.18hr: tube formation; for cm.amp.avg.90min / cm.amp.cv.90min / cm.bpm.90min / cm.cam.90min / cm.decay.rise.90min / cm.mii.90min / cm.mito.90min / cm.spacing.cv.90min / cm.tc.90min / cm.amp.avg.24hrs / cm.amp.cv.24hrs / cm.bpm.24hrs / cm.cam.24hrs / cm.decay.rise.24hrs / cm.mii.24hrs / cm.mito.24hrs / cm.spacing.cv.24hrs / cm.tc.24hrs: iPSC cardiomyocytes; for endo.cyto.24hr / endo.mito.24hr / endo.mitoint.24hr / endo.nma.24hr / endo.tc.24hr / endo.mtl.18hr / endo.tlps.18hr / endo.tta.18hr / endo.ttl.18hr: iPSC endothelial cells
# Text: Phenotypic responses were quantitatively assessed using concentration–response modeling as detailed elsewhere ([Sirenko et al. 2017]). Briefly, phenotypic readouts were normalized to vehicle controls and fit to a four-parameter logistic model in R studio software (version 3.1.1; R Development Core Team). Following EPA guidance on dose–response modeling, a cutoff of one standard deviation across means of vehicle control (i.e., 0.5% vol/vol DMSO in cell culture media) wells was applied to determine the point-of-departure (POD) values ([U.S. EPA 2012]). In the absence of a concentration–response, the highest tested concentration (i.e., 100μM ) was assigned as “no observable adverse effect level.” The concentration–response assessment R script, as well as templates for vehicle and concentration–response data, are available as a supplement to Sirenko et al. ([2017]). The ability of physicochemical properties to predict differences in PODs were evaluated by multiregression and mixed-effects modeling using R.
# POD values were then integrated using ToxPi 2.0 ([Marvel et al. 2018]) software. In ToxPi, each slice is representative of cell type– and time-point–specific phenotypes. The area of each slice is proportional to the relative value (e.g., bioactivity or physicochemical descriptor value) of the chemical within the data set. ToxPi scores were used to rank PCBs and their metabolites according to their overall bioactivity and to determine variability in total observable biological responses and chemical characteristics for each major metabolite class and chlorination status (mono-, hexa-chlorinated). Additional visualizations such as dumbbell and principal components analysis plots were generated in R Studio (version 1.1.456; R version 3.5.1; R Development Core Team) using the ggplot2 package.
smiles,measurement,value
"Oc1ccc(O)c(-c2ccc(Cl)cc2)c1 [2',5'-diOH-PCB 3, 4-Chloro-2′,5′-dihydroxybiphenyl]",huvec.cyto.24hr,0.7001
same,huvec.mito.24hr,0.7865
same,huvec.mitoint.24hr,0.6634
same,huvec.nma.24hr,0.309
same,huvec.tc.24hr,0.7001
same,huvec.mtl.18hr,0.9783
same,huvec.tlps.18hr,0.7891
same,huvec.tta.18hr,0.8497
same,huvec.ttl.18hr,0.663
same,cm.amp.avg.90min,0.2608
same,cm.amp.cv.90min,0.5898
same,cm.bpm.90min,0.1802
same,cm.cam.90min,0.4648
same,cm.decay.rise.90min,0.2325
same,cm.mii.90min,0.9473
same,cm.mito.90min,0.8423
same,cm.spacing.cv.90min,0.3549
same,cm.tc.90min,0.4501
same,cm.amp.avg.24hrs,0.4147
same,cm.amp.cv.24hrs,0.7626
same,cm.bpm.24hrs,0.7331
same,cm.cam.24hrs,0.5361
same,cm.decay.rise.24hrs,0.935
same,cm.mii.24hrs,1
same,cm.mito.24hrs,1
same,cm.spacing.cv.24hrs,1
same,cm.tc.24hrs,0.9136
same,endo.cyto.24hr,0.4719
same,endo.mito.24hr,0.4719
same,endo.mitoint.24hr,0.1112
same,endo.nma.24hr,0.3504
same,endo.tc.24hr,0.5028
same,endo.mtl.18hr,0.5595
same,endo.tlps.18hr,0.8388
same,endo.tta.18hr,0.3744
same,endo.ttl.18hr,0.3867
Oc1ccccc1-c1ccc(Cl)cc1 [2'-OH-PCB 3],huvec.cyto.24hr,0.3062
same,huvec.mito.24hr,0.3804
same,huvec.mitoint.24hr,0.2116
same,huvec.nma.24hr,0.5273
same,huvec.tc.24hr,0.3062
same,huvec.mtl.18hr,0
same,huvec.tlps.18hr,0.9781
same,huvec.tta.18hr,0
same,huvec.ttl.18hr,0
same,cm.amp.avg.90min,1
same,cm.amp.cv.90min,1
same,cm.bpm.90min,0.6048
same,cm.cam.90min,0.4595
same,cm.decay.rise.90min,0.9737
same,cm.mii.90min,0.8925
same,cm.mito.90min,0.3599
same,cm.spacing.cv.90min,0.3323
same,cm.tc.90min,0.4365
same,cm.amp.avg.24hrs,0.2407
same,cm.amp.cv.24hrs,0.05985
same,cm.bpm.24hrs,0.1658
same,cm.cam.24hrs,0.1217
same,cm.decay.rise.24hrs,0.6737
same,cm.mii.24hrs,0.7202
same,cm.mito.24hrs,0.2606
same,cm.spacing.cv.24hrs,0.1842
same,cm.tc.24hrs,0.2359
same,endo.cyto.24hr,0.1423
same,endo.mito.24hr,0.1423
same,endo.mitoint.24hr,0
same,endo.nma.24hr,0.7069
same,endo.tc.24hr,0.06754
same,endo.mtl.18hr,0.2097
same,endo.tlps.18hr,0.3809
same,endo.tta.18hr,0.1099
same,endo.ttl.18hr,0.1352
Oc1cccc(-c2ccc(Cl)cc2)c1 [3'-OH-PCB 3],huvec.cyto.24hr,0.4672
same,huvec.mito.24hr,0.5506
same,huvec.mitoint.24hr,0.1749
same,huvec.nma.24hr,1
same,huvec.tc.24hr,0.4672
same,huvec.mtl.18hr,1
same,huvec.tlps.18hr,0.8699
same,huvec.tta.18hr,0.6576
same,huvec.ttl.18hr,0.5155
same,cm.amp.avg.90min,0.6872
same,cm.amp.cv.90min,0.2705
same,cm.bpm.90min,0.8835
same,cm.cam.90min,0.7562
same,cm.decay.rise.90min,0.4777
same,cm.mii.90min,0.3912
same,cm.mito.90min,0.7743
same,cm.spacing.cv.90min,0.07935
same,cm.tc.90min,0.7836
same,cm.amp.avg.24hrs,0.4464
same,cm.amp.cv.24hrs,0.3812
same,cm.bpm.24hrs,0.4553
same,cm.cam.24hrs,0.2634
same,cm.decay.rise.24hrs,0.8154
same,cm.mii.24hrs,0.3889
same,cm.mito.24hrs,0.4239
same,cm.spacing.cv.24hrs,0.8008
same,cm.tc.24hrs,0.4277
same,endo.cyto.24hr,0.1365
same,endo.mito.24hr,0.1365
same,endo.mitoint.24hr,0
same,endo.nma.24hr,0.4106
same,endo.tc.24hr,0.1112
same,endo.mtl.18hr,0.5876
same,endo.tlps.18hr,0.7333
same,endo.tta.18hr,0.4844
same,endo.ttl.18hr,0.4865
O=S(=O)(O)Oc1cccc(-c2ccc(Cl)cc2)c1 [3'-PCB 3 sulfate],huvec.cyto.24hr,0
same,huvec.mito.24hr,0
same,huvec.mitoint.24hr,0
same,huvec.nma.24hr,0
same,huvec.tc.24hr,0
same,huvec.mtl.18hr,0.4173
same,huvec.tlps.18hr,0
same,huvec.tta.18hr,0
same,huvec.ttl.18hr,0
same,cm.amp.avg.90min,0
same,cm.amp.cv.90min,0
same,cm.bpm.90min,0.07423
same,cm.cam.90min,0
same,cm.decay.rise.90min,0
same,cm.mii.90min,0.03988
same,cm.mito.90min,0
same,cm.spacing.cv.90min,0
same,cm.tc.90min,0
same,cm.amp.avg.24hrs,0
same,cm.amp.cv.24hrs,0
same,cm.bpm.24hrs,0
same,cm.cam.24hrs,0
same,cm.decay.rise.24hrs,0
same,cm.mii.24hrs,0
same,cm.mito.24hrs,0
same,cm.spacing.cv.24hrs,0
same,cm.tc.24hrs,0
same,endo.cyto.24hr,0
same,endo.mito.24hr,0
same,endo.mitoint.24hr,0
same,endo.nma.24hr,0
same,endo.tc.24hr,0
same,endo.mtl.18hr,0.5389
same,endo.tlps.18hr,0.1522
same,endo.tta.18hr,0.1963
same,endo.ttl.18hr,0.2248
O=S(=O)(O)Oc1cc(-c2ccccc2)ccc1Cl [3-PCB 3 sulfate],huvec.cyto.24hr,0
same,huvec.mito.24hr,0
same,huvec.mitoint.24hr,0
same,huvec.nma.24hr,0
same,huvec.tc.24hr,0
same,huvec.mtl.18hr,0.4834
same,huvec.tlps.18hr,0.07929
same,huvec.tta.18hr,0
same,huvec.ttl.18hr,0.09819
same,cm.amp.avg.90min,0.1033
same,cm.amp.cv.90min,0
same,cm.bpm.90min,0
same,cm.cam.90min,0
same,cm.decay.rise.90min,0
same,cm.mii.90min,0
same,cm.mito.90min,0
same,cm.spacing.cv.90min,0
same,cm.tc.90min,0
same,cm.amp.avg.24hrs,0
same,cm.amp.cv.24hrs,0
same,cm.bpm.24hrs,0
same,cm.cam.24hrs,0
same,cm.decay.rise.24hrs,0
same,cm.mii.24hrs,0.391
same,cm.mito.24hrs,0
same,cm.spacing.cv.24hrs,0
same,cm.tc.24hrs,0
same,endo.cyto.24hr,0
same,endo.mito.24hr,0
same,endo.mitoint.24hr,0
same,endo.nma.24hr,0
same,endo.tc.24hr,0
same,endo.mtl.18hr,0
same,endo.tlps.18hr,0.4317
same,endo.tta.18hr,0
same,endo.ttl.18hr,0
